In general, IC50 refers to the point on the concentration scale where inhibition reaches its midpoint.

Bounds are passed on as bounds.

The assay addresses T1, human bradykinin B2 receptor (hB2R) (Homo sapiens, UniProt P30411).
T1 sequence (P30411 1-391): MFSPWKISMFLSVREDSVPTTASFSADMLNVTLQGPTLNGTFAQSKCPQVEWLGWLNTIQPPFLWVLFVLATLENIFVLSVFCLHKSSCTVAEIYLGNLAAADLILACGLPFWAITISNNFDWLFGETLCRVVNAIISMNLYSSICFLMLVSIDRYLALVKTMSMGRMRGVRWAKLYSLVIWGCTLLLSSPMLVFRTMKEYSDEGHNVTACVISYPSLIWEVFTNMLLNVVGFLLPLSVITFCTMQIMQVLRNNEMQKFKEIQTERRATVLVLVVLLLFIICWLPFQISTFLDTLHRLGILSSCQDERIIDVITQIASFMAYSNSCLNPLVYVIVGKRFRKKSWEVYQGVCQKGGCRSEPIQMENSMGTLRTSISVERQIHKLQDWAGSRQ
Briefly: cell-based human bradykinin B2 receptor calcium mobilization (hB2R-CaM) assay. Conditions: HTS041C cells, bradykinin at EC80, calcium mobilization; read-out: IC50-value towards human bradykinin B2 receptor (hB2R). The source says:
The following cell-based human bradykinin B2 receptor calcium mobilization (hB2R-CaM) assay was used to determine the antagonistic activity of compounds selected from the example compounds Nos. 1 to 168 towards human bradykinin B2 receptor (hB2R). The assay is defined herein as a standard in vitro B2 receptor activity assay, which can be used to determine IC50 values of the compounds according to the present invention, e. g. the compounds shown in Examples 1-11.
The antagonistic activity of compounds according to the present invention was investigated with the hB2R-CaM assay using the B2 Bradykinin Receptor Stable Cell Line HTS041C (Eurofins, St. Charles MO) and the FLIPR Calcium 6 Assay Kit (Molecular Devices, Wokingham, UK) according to the instructions of the providers. CaM assay measurements were performed with a Flexstation 3 System (Molecular Devices) which allows the precise addition of compounds (B2R antagonists) and bradykinin (B2R agonist) to the cells and adjacent continuous recording of the time-dependent CaM assay signals.
HTS041C cells were cultured in high glucose DMEM cell culture medium (Lonza) supplemented with 10% heat-inactivated FBS (PAN Biotech), 10 mM HEPES, Penicillin/Streptomycin (200 U/mL, 200 μg/mL), 1× non-essential amino acids (Lonza), and 250 μg/mL G418 (Invivogen) in cell incubator at 37° C. in a 5% CO2 atmosphere.
One day before the CaM assay experiments cells were seeded in 200 μL DMEM cell culture medium with reduced FBS (5%) and without G418 on clear bottom black 96 well plates (ThermoFisher #165305). Cell starvation was carried out by incubation (37° C., 5% CO2) of 70.000 cells/well for 24 h to 28 h. Immediately prior calcium dye-loading the medium was carefully aspirated and cells were washed with Hank's balanced salt solution (HBSS, Gibco) containing Ca^2+, Mg^2+ and 20 mM HEPES, adjusted to pH 7.4 (HBSS+). Calcium Dye Loading of the Cells:
For calcium dye-loading one FLIPR 6 assay aliquot was dissolved in 20 mL HBSS+. 150 μL of the dye loading solution was added to cell plate and incubated for 120 min at 37° C. and 5% CO2. After dye loading the cell plate was immediately transferred to the pre-warmed (37° C.) Flexstation 3 System for CaM assaying.
Freshly prepared compound (B2 receptor antagonists) dilution series (8 pt, n=2) and bradykinin (B2 receptor agonist) solution in non-binding plates (Costar) were transferred to the Flexstation System (source plate) shortly before starting the experiment. Bradykinin was added in EC80 concentration determined in n>3 preliminary experiments with 8 pt concentration response curves (n=8)). CaM assay was executed by Flexstation 3 System starting with recording of calcium-sensitive dye fluorescence in bottom-read Flex modus with ex/em=485 nm/525 nm, cut off(em)=[…]. After 20 s, 50 μL of 4-fold concentrated compound dilutions were added to the cells resulting in a final DMSO (Sigma) concentration of 0.1% in the cell plate. CaM signals were monitored for 80 s after additions for detection of potential agonistic activities. Prior to bradykinin stimulus compound- and vehicle-treated cells were incubated for 25 min at 37° C. within the Flexstation System. Then 50 μL of a 5-fold concentrated bradykinin solution (HBSS+, 0.1% DMSO) was added to trigger CaM signals (Read out: Max-Min values) which were measured for 80 s post bradykinin stimulus.
IC50 determinations were performed by 4 parameter logistic model curve fitting of the 8 pt (n=2) compound concentration response curves using XLFIT (IDBS) software.
Relative IC50 values of the test compounds were determined with the same hB2R-CaM assay as in Example 12.
A general note: Calcium assays in cells follow changes in intracellular calcium, usually with a dye or a luminescent sensor.
`Cc1cc(-n2cc(F)cn2)c2cccc(OCc3c(Cl)cc(F)cc3[C@H](C)N(C)C(=O)C(C)(C)O)c2n1` [Compound 101]: the half-maximal inhibitory concentration (IC50) is at most 50 nM. Take `Cc1cc(-n2cc(F)cn2)c2cccc(OCc3c(Cl)cc(F)cc3[C@H](C)N(C)C(=O)CO)c2n1` [Compound 102]: the concentration for half-maximal inhibition (IC50) was at most 50 nM. For `Cc1cc(-n2cc(F)cn2)c2cccc(OCc3c(Cl)cc(F)cc3[C@H](C)N(C)C(=O)[C@H](C)Cl)c2n1` [Compound 103] the value was 51 to 250 nM; for `Cc1cc(-n2cc(F)cn2)c2cccc(OCc3c(Cl)cc(F)cc3[C@H](CO)NC(=O)C(C)(C)O)c2n1` [Compound 105], 51 to 250 nM. For `Cc1cc(-n2cc(F)cn2)c2cccc(OCc3c(Cl)cc(F)cc3[C@H](CO)NC(=O)COC(F)F)c2n1` [Compound 106], the IC50 is at most 50 nM. The result for `COCCC(=O)N[C@@H](CO)c1cc(F)cc(Cl)c1COc1cccc2c(-n3cc(F)cn3)cc(C)nc12` [Compound 107] reads at most 50 nM; that for `Cc1cc(-n2cc(F)cn2)c2cccc(OCc3c(Cl)cc(F)cc3[C@H](C)NC(=O)c3cn(C)cn3)c2n1` [Compound 108], 51 to 250 nM; that for `Cc1cc(-n2cc(F)cn2)c2cccc(OCc3c(Cl)cc(F)cc3[C@H](C)NC(=O)C3CCC(C)(C)O3)c2n1` (stereo partly shown) [Compound 109], 51 to 250 nM. For `Cc1cc(-n2cc(F)cn2)c2cccc(OCc3c(Cl)cc(F)cc3[C@H](C)NC(=O)C3(C)CCCO3)c2n1` (stereo partly shown) [Compound 110] the value was at most 50 nM; for `Cc1cc(-n2cc(F)cn2)c2cccc(OCc3c(Cl)cc(F)cc3[C@H](C)NC(=O)[C@@H]3COC(=O)N3)c2n1` [Compound 111], 51 to 250 nM. Consider `Cc1cc(-n2cc(F)cn2)c2cccc(OCc3c(Cl)cc(F)cc3[C@H](C)NC(=O)[C@H]3COC(=O)N3)c2n1` [Compound 112], for which the concentration for half-maximal inhibition (IC50) fell in the range of 51 to 250 nM. The result for `Cc1cc(-n2cc(F)cn2)c2cccc(OCc3c(Cl)cc(F)cc3[C@H](C)NC(=O)[C@@H]3CNC(=O)N3)c2n1` [Compound 113] reads 51 to 250 nM; that for `Cc1cc(-n2cc(F)cn2)c2cccc(OCc3c(Cl)cc(F)cc3[C@H](C)NC(=O)[C@@H]3CCC(=O)N3)c2n1` [Compound 114], 51 to 250 nM. For `Cc1cc(-n2cc(F)cn2)c2cccc(OCc3c(Cl)cc(F)cc3[C@H](C)NC(=O)[C@H]3CCC(=O)N3)c2n1` [Compound 115] the value was 51 to 250 nM. The result for `Cc1cc(-c2ncnn2C)c2cccc(OCc3c(Cl)cc(F)cc3[C@H](C)NC(=O)COC(F)(F)F)c2n1` [Compound 116] reads at most 50 nM; that for `Cc1cc(-c2ncnn2C)c2cccc(OCc3c(Cl)cc(F)cc3[C@H](C)NC(=O)COCC3CC3)c2n1` [Compound 117], at most 50 nM; that for `Cc1cc(-c2ncnn2C)c2cccc(OCc3c(Cl)cc(F)cc3[C@H](C)NC(=O)C3CCC(C)(C)O3)c2n1` (stereo partly shown) [Compound 118], at most 50 nM. On to `Cc1cc(-c2ncnn2C)c2cccc(OCc3c(Cl)cc(F)cc3[C@H](C)NC(=O)C3(C)CCCO3)c2n1` (stereo partly shown) [Compound 119], for which the IC50 is 51 to 250 nM. For `Cc1cc(-c2ncnn2C)c2cccc(OCc3c(Cl)cc(F)cc3[C@H](C)NC(=O)c3cnco3)c2n1` [Compound 120] the value was at most 50 nM. The result for `Cc1cc(-n2cc(F)cn2)c2cccc(OCc3c(Cl)cc(F)cc3[C@H](C)NC(=O)COC(F)(F)F)c2n1` [Compound 121] reads at most 50 nM; that for `Cc1cc(-c2ncnn2C)c2cccc(OCc3c(Cl)cc(F)cc3[C@H](C)NC(=O)c3ccon3)c2n1` [Compound 122], at most 50 nM. The result for `Cc1cc(-n2cc(F)cn2)c2cccc(OCc3c(Cl)cc(F)cc3[C@H](C)NC(=O)c3ccccn3)c2n1` [Compound 123] reads 51 to 250 nM. `Cc1cc(-n2cc(F)cn2)c2cccc(OCc3c(Cl)cc(F)cc3[C@H](C)NC(=O)c3cccnc3)c2n1` [Compound 124]: the IC50 was at most 50 nM.

Consider `Cc1cc(-n2cc(F)cn2)c2cccc(OCc3c(Cl)cc(F)cc3[C@H](C)NC(=O)c3ccncc3)c2n1` [Compound 125], for which the IC50 was in the range of 51 to 250 nM. On to `Cc1cc(-c2ncnn2C)c2cccc(OCc3c(Cl)cc(F)cc3[C@H](C)NC(=O)c3ocnc3C)c2n1` [Compound 126], for which the IC50 is at most 50 nM.

For the compound `Cc1cc(-c2ncnn2C)c2cccc(OCc3c(Cl)cc(F)cc3[C@H](C)NC(=O)c3cc(C)on3)c2n1` [Compound 127], the 50% inhibitory concentration (IC50) is at most 50 nM. For `Cc1cc(-c2ncnn2C)c2cccc(OCc3c(Cl)cc(F)cc3[C@H](C)NC(=O)c3cocn3)c2n1` [Compound 128] the value was at most 50 nM; for `Cc1cc(-c2ncnn2C)c2cccc(OCc3c(Cl)cc(F)cc3[C@H](C)NC(=O)c3cc(C)n(C)n3)c2n1` [Compound 129], at most 50 nM. For `Cc1cc(-c2ncnn2C)c2cccc(OCc3c(Cl)cc(F)cc3[C@H](C)NC(=O)c3coc(C)n3)c2n1` [Compound 130] the value was at most 50 nM. The result for `CC[C@H](NC(=O)COC(F)F)c1cc(F)cc(Cl)c1COc1cccc2c(-c3ncnn3C)cc(C)nc12` [Compound 131] reads at most 50 nM; that for `Cc1cc(-n2cc(F)cn2)c2cccc(OCc3c(Cl)cc(F)cc3[C@H](C)NC(=O)[C@@H]3CC[C@H](C)O3)c2n1` [Compound 132], at most 50 nM. With `Cc1cc(-c2ncnn2C)c2cccc(OCc3c(Cl)cc(F)cc3[C@H](C)NC(=O)[C@@H]3CC[C@H](C)O3)c2n1` [Compound 133], the IC50 was at most 50 nM.

Consider `Cc1cc(-n2nc(C)nc2C)c2cccc(OCc3c(Cl)cc(F)cc3[C@H](C)NC(=O)COC(F)F)c2n1` [Compound 134], for which the 50% inhibitory concentration (IC50) was at most 50 nM. For `Cc1cc(-n2nc(C)nc2C)c2cccc(OCc3c(Cl)cc(F)cc3[C@H](C)NC(=O)c3ccon3)c2n1` [Compound 135] the value was 51 to 250 nM; for `Cc1cc(-n2nc(C)nc2C)c2cccc(OCc3c(Cl)cc(F)cc3[C@H](C)NC(=O)c3cc(C)on3)c2n1` [Compound 136], 51 to 250 nM; for `Cc1cc(-n2nc(C)nc2C)c2cccc(OCc3c(Cl)cc(F)cc3[C@H](C)NC(=O)c3coc(C)n3)c2n1` [Compound 137], 51 to 250 nM.

Consider `Cc1cc(-n2nc(C)nc2C)c2cccc(OCc3c(Cl)cc(F)cc3[C@H](C)NC(=O)C(C)(C)O)c2n1` [Compound 138], for which the IC50 lay in the range of 51 to 250 nM. As to `Cc1cc(-n2nc(C)nc2C)c2cccc(OCc3c(Cl)cc(F)cc3[C@H](C)NC(=O)COC(F)(F)F)c2n1` [Compound 139], the IC50 was at most 50 nM.

On to `CCn1ncnc1-c1cc(C)nc2c(OCc3c(Cl)cc(F)cc3[C@H](C)NC(=O)COC(F)F)cccc12` [Compound 140], for which the half-inhibitory concentration (IC50) was at most 50 nM. For `CCn1ncnc1-c1cc(C)nc2c(OCc3c(Cl)cc(F)cc3[C@H](C)NC(=O)c3ccon3)cccc12` [Compound 141] the value was at most 50 nM. With `CCn1ncnc1-c1cc(C)nc2c(OCc3c(Cl)cc(F)cc3[C@H](C)NC(=O)c3coc(C)n3)cccc12` [Compound 142], the half-inhibitory concentration (IC50) is at most 50 nM. Take `CCn1ncnc1-c1cc(C)nc2c(OCc3c(Cl)cc(F)cc3[C@H](C)NC(=O)C(C)(C)O)cccc12` [Compound 143]: the 50% inhibitory concentration (IC50) is at most 50 nM. The result for `Cc1cc(-c2ncnn2C)c2cccc(OCc3c(Cl)cc(F)cc3[C@H](C)NC(=O)C3CCCCC3)c2n1` [Compound 144] reads at most 50 nM.

These data come from patent publication US11820756B2, “Bradykinin B2 receptor antagonists” (Pharvaris Netherlands B.V., priority 2017, dated 2023).
